Results on 27 compounds are retold here after patent US7166622B2, “Substituted phenylsulfonamide inhibitors of beta amyloid production” (Wyeth, priority 2002, dated 2007).

Where “and” joins values, the source holds several entries; their conditions need not be identical. Identical values can stand only once. Like-named read-outs stand apart in the source and are kept apart here.

For one data set, the system named is beta amyloid production. The data set can be described thus: Repressor Release Assay (RRA). Format: cell-based. The conditions noted are these: for fold induction at 10 µg/mL / fold induction at 3 µg/mL / fold induction at 20 µg/mL: read-out: APPI Fold Increase; for fold induction at 20 µg/mL: Conc 20 μg/ml; for APPI % of Example #98: relative to Example 98. The essentials:
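Read-out is luciferase luminescence (RLU) after 36-48 h duplicate compound exposure of transfected CHO-K1 cells. These cells carry transiently introduced APP-lacI and pRSVO-luc DNA. Diluent control was 25 mM Hepes/1% DMSO; toxicity recorded as binary score (1 non-toxic, 0 toxic).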

In the next data set the test system is CHO-K1 cells. Description: Toxicity in RRA (loss of luciferase signal). The note with it: toxicity = loss of signal (<0.75 fold increase).
The mark [1] stands for this setting: Conc 10 μg/ml, luciferase activity over diluent control.
The mark [2] stands for this setting: Conc 3 μg/ml, luciferase activity over diluent control.
Where [3] appears, read: luciferase activity over diluent control.
Where [4] appears, read: luciferase activity (RLU) over diluent control.
[5] abbreviates: Conc 20 μg/ml, 1=non-toxic, 0=toxic.

Description for CHO-K1 cells: The beta amyloid inhibitory activity of the compounds of the present invention was determined using the Repressor Release Assay (RRA).
“Fold Increase” refers to the amount of luciferase activity (measured in relative light units) over diluent control. “SEM” refers to the standard error of the mean for fold increase.

For the compound `CC[C@H](C)[C@H](NS(=O)(=O)c1ccc(Cl)cc1)C(O)CC(C)C` (stereo partly drawn) [Example 173, 4-chloro-N-{(1S)-2-hydroxy-4-methyl-1-[(1S)-1-methylpropyl]pentyl}benzenesulfonamide], the fold induction at 10 µg/mL in the data set with beta amyloid production (setting [1]) is 2.56. For the same compound, the “(%)APPI Toxicity” value in the data set on CHO-K1 cells (Conc 10 μg/ml) is listed as 1 (1=non-toxic).

Turning to `CC[C@H](C)[C@H](NS(=O)(=O)c1ccccc1F)C(O)CCC1OCCCO1` (stereo partly drawn) [Example 210, N-{(1S)-4-(1,3-dioxan-2-yl)-2-hydroxy-1-[(1S)-1-methylpropyl]butyl}-2-fluorobenzenesulfonamide], in the data set on beta amyloid production (setting [1]), the fold induction at 10 µg/mL came out at 1.68. In addition, the “(%)APPI Toxicity” value with CHO-K1 cells (Conc 10 μg/ml) was 1 (1=non-toxic).

On to `CC[C@H](C)[C@H](NS(=O)(=O)c1cccc(Cl)c1)C(O)C(C)(C)C` (stereo partly drawn) [Example 191, 3-chloro-N-{(1S)-2-hydroxy-3,3-dimethyl-1-[(1S)-1-methylpropyl]butyl}benzenesulfonamide], for which the fold induction at 10 µg/mL in the data set with beta amyloid production (setting [1]) stood at 2.42. Besides, the “(%)APPI Toxicity” value in the data set with CHO-K1 cells (Conc 10 μg/ml) was 1 (1=non-toxic).

Turning to `CC[C@@H](C)[C@@H](CO)NS(=O)(=O)c1ccc(Cl)cc1` [Example 39, 4-chloro-N-[(1S,2R)-1-(hydroxymethyl)-2-methylbutyl]benzenesulfonamide], in the data set with beta amyloid production (setting [2]), the fold induction at 3 µg/mL came to 1.56. For the same compound, in the data set with beta amyloid production (setting [1]), the fold induction at 10 µg/mL is 2.47. The fold induction at 20 µg/mL in the data set on beta amyloid production (setting [3]) is 5.5. In addition, the “(%)APPI Toxicity” value in the data set on CHO-K1 cells (Conc 3 μg/ml), in the data set with CHO-K1 cells (Conc 10 μg/ml) and in the data set on CHO-K1 cells (Conc 20 μg/ml) was 1 (1=non-toxic) in each case.

As to `O=S(=O)(NC1(CO)CCc2ccccc21)c1ccc(Cl)cc1` (stereo not shown) [Example 124, 4-chloro-N-[1-(hydroxymethyl)-2,3-dihydro-1H-inden-1-yl]benzenesulfonamide], the fold induction at 20 µg/mL in the data set on beta amyloid production (setting [3]) amounted to 2. Further, the “(%)APPI Toxicity” value in the data set with CHO-K1 cells (Conc 20 μg/ml) was 1 (1=non-toxic).

With `CC[C@H](C)[C@@H](CO)NS(=O)(=O)c1cccc(Br)c1` [Example 2, 3-bromo-N-[(1S,2S)-1-(hydroxymethyl)-2-methylbutyl]benzenesulfonamide], in the data set with beta amyloid production (setting [3]), the fold induction at 20 µg/mL was found to be 2.8. Besides, the “(%)APPI Toxicity” value in the data set on CHO-K1 cells (Conc 20 μg/ml) was 1 (1=non-toxic).

Regarding `CC(C)(C)[C@@H](CO)NS(=O)(=O)c1cc(Cl)c(Cl)cc1Cl` [Example 31, 2,4,5-trichloro-N-[(1S)-1-(hydroxymethyl)-2,2-dimethylpropyl]benzenesulfonamide], in the data set with beta amyloid production (setting [3]), the fold induction at 20 µg/mL worked out at 2.8. In the data set with CHO-K1 cells (Conc 20 μg/ml), the “(%)APPI Toxicity” value is listed as 1 (1=non-toxic).

`CC[C@H](C)[C@H](NS(=O)(=O)c1ccc(Cl)cc1)C(O)C(C)C` (stereo partly drawn) [Example 170, 4-chloro-N-{(1S)-2-hydroxy-3-methyl-1-[(1S)-1-methylpropyl]butyl}benzenesulfonamide]: the fold induction at 10 µg/mL with beta amyloid production (setting [1]) stood at 1.92. In the data set with CHO-K1 cells (Conc 10 μg/ml), the “(%)APPI Toxicity” value is given as 1 (1=non-toxic).

Regarding `O=S(=O)(N[C@H](CO)CC1CCCCC1)c1ccc(Cl)cc1` [Example 95, 4-chloro-N-[(1S)-2-cyclohexyl-1-(hydroxymethyl)ethyl]benzenesulfonamide], the fold induction at 20 µg/mL in the data set with beta amyloid production (setting [3]) was 1.6. The “(%)APPI Toxicity” value with CHO-K1 cells (Conc 20 μg/ml) was 1 (1=non-toxic).

In the case of `CCCCCCC(O)[C@@H](NS(=O)(=O)c1ccc(Cl)cc1)[C@@H](C)CC` (stereo partly drawn) [Example 167, 4-chloro-N-{(1S)-2-hydroxy-1-[(1S)-1-methylpropyl]octyl}benzenesulfonamide], in the data set on beta amyloid production (setting [1]), the fold induction at 10 µg/mL came out at 9.66. For the same compound, the “(%)APPI Toxicity” value in the data set with CHO-K1 cells (Conc 10 μg/ml) was 1 (1=non-toxic).

On to `C=C(C)C(O)[C@@H](NS(=O)(=O)c1ccc(Br)cc1)[C@@H](C)CC` (stereo partly drawn) [Example 157, 4-bromo-N-{(1S)-2-hydroxy-3-methyl-1-[(1S)-1-methylpropyl]-3-butenyl}benzenesulfonamide], for which, in the data set on beta amyloid production (setting [1]), the fold induction at 10 µg/mL is 1.96. The “(%)APPI Toxicity” value in the data set on CHO-K1 cells (Conc 10 μg/ml) is listed as 1 (1=non-toxic).

Take `CC[C@H](C)[C@H](NS(=O)(=O)c1ccc(Br)cc1)C(O)C1CCCC1` (stereo partly drawn) [Example 146, 4-bromo-N-1-{(1S,2S)-1-[cyclopentyl(hydroxy)methyl]-2-methylbutyl}benzenesulfonamide]: the “APPI Fold Increase” value in the data set with beta amyloid production (setting [2]) was 1.53 fold; in the data set with beta amyloid production (setting [1]), 4.26 fold and 2.33 fold. In addition, the “APPI % of Example #98” value was 60.66% in the data set on beta amyloid production (Conc 3 μg/ml); 166.6% and 92.64% in the data set with beta amyloid production (Conc 10 μg/ml). Further, the “(%)APPI Toxicity” value in the data set with CHO-K1 cells (Conc 3 μg/ml) and in the data set with CHO-K1 cells (Conc 10 μg/ml) was 1 (1=non-toxic) in each case.

Take `CCCCCC[C@@H](C(C)C)[C@@H](CO)NS(=O)(=O)c1ccc(Cl)cc1` [Example 70, 4-chloro-N-[(1S,2S)-1-(hydroxymethyl)-2-isopropyloctyl]benzenesulfonamide]: the fold induction at 20 µg/mL with beta amyloid production (setting [4]) came to 2. Besides, the “(%)APPI Toxicity” value in the data set with CHO-K1 cells (setting [5]) was 1 (1=non-toxic).

For the compound `CCCCC[C@H](CC)[C@@H](CO)NS(=O)(=O)c1ccc(Cl)cc1` [Example 61, 4-chloro-N-[(1S,2S)-2-ethyl-1-(hydroxymethyl)-heptyl]benzenesulfonamide], in the data set with beta amyloid production (setting [4]), the fold induction at 20 µg/mL was determined as 6.5. Further, in the data set on CHO-K1 cells (setting [5]), the “(%)APPI Toxicity” value is 1 (1=non-toxic).

As for `CC[C@H](C)[C@H](NS(=O)(=O)c1ccc(Cl)cc1)C(O)(c1ccc(OC)cc1)c1ccc(OC)cc1` [Example 231, 4-chloro-N-((1S,2 S)-1-{hydroxy [bis(4-methoxyphenyl)]methyl}-2-methylbutyl)benzenesulfonamide], in the data set on beta amyloid production (setting [1]), the fold induction at 10 µg/mL is 2.49. Moreover, the “(%)APPI Toxicity” value with CHO-K1 cells (Conc 10 μg/ml) is recorded as 1 (1=non-toxic).

As for `CC[C@H](C)[C@H](NS(=O)(=O)c1ccc(F)cc1)C(O)c1ccc(OC)cc1` (stereo partly drawn) [Example 139, 4-fluoro-N-{(1S,2S)-1-[hydroxy(4-methoxyphenyl)methyl]-2-methylbutyl}benzenesulfonamide], the fold induction at 10 µg/mL in the data set on beta amyloid production (setting [1]) was found to be 2.12. Further, the “(%)APPI Toxicity” value in the data set with CHO-K1 cells (Conc 10 μg/ml) is 1 (1=non-toxic).

Take `CC(C)C[C@@H](c1ccco1)[C@@H](CO)NS(=O)(=O)c1ccc(Br)cc1` [Example 86, 4-bromo-N-[(1S,2R)-2-(2-furyl)-1-(hydroxymethyl)-4-methylpentyl]benzenesulfonamide]: the fold induction at 20 µg/mL with beta amyloid production (setting [4]) worked out at 1.6. The “(%)APPI Toxicity” value in the data set with CHO-K1 cells (setting [5]) is 1 (1=non-toxic).

Turning to `CCCCCC[C@@H](CCC)[C@@H](CO)NS(=O)(=O)c1ccc(Br)cc1` [Example 79, 4-bromo-N-[(1S,2R)-1-(hydroxymethyl)-2-propyloctyl]benzenesulfonamide], in the data set on beta amyloid production (setting [4]), the fold induction at 20 µg/mL came out at 1.5. For the same compound, the “(%)APPI Toxicity” value with CHO-K1 cells (setting [5]) is recorded as 1 (1=non-toxic).

In the case of “N-{(1S)-2-allyl-2-hydroxy 1-[(1S)-1-methylpropyl]-4-pentenyl}-4-bromo benzenesulfonamide [Example 216]”, in the data set on beta amyloid production (setting [1]), the “APPI Fold Increase” value worked out at 1.58 fold. For the same compound, the “APPI % of Example #98” value in the data set on beta amyloid production (Conc 10 μg/ml) turned out to be 72.76%. Besides, in the data set with CHO-K1 cells (Conc 10 μg/ml), the “(%)APPI Toxicity” value is listed as 1 (1=non-toxic).

`C=CCCC(O)(CCC=C)[C@@H](NS(=O)(=O)c1ccc(Br)cc1)[C@@H](C)CC` [Example 221, 4-bromo-N-{(1S)-2-(3-butenyl)-2-hydroxy-1-[(1S)-1-methylpropyl]-5-hexenyl}benzenesulfonamide]: in the data set with beta amyloid production (setting [1]), the fold induction at 10 µg/mL was 5.73. The “(%)APPI Toxicity” value in the data set with CHO-K1 cells (Conc 10 μg/ml) is on record as 1 (1=non-toxic).

`C=CCC(O)[C@@H](NS(=O)(=O)c1ccc(Br)cc1)[C@@H](C)CC` (stereo partly drawn) [Example 152, 4-bromo-N-{(1S)-2-hydroxy-1-[(1S)-1-methylpropyl]-4-pentenyl}benzenesulfonamide]: the fold induction at 3 µg/mL in the data set on beta amyloid production (setting [2]) came to 1.6. Further, the fold induction at 10 µg/mL in the data set on beta amyloid production (setting [1]) came out at 6.64. The “(%)APPI Toxicity” value in the data set on CHO-K1 cells (Conc 3 μg/ml) and with CHO-K1 cells (Conc 10 μg/ml) was 1 (1=non-toxic) each time.

Turning to `C=CCCC(O)(CCC=C)[C@@H](NS(=O)(=O)c1ccccc1F)[C@@H](C)CC` [Example 271, N-{(1S)-2-(3-butenyl)-2-hydroxy-1-[(1S)-1-methylpropyl]-5-hexenyl}-2-fluorobenzenesulfonamide], the fold induction at 10 µg/mL in the data set on beta amyloid production (setting [1]) amounted to 1.82. The “(%)APPI Toxicity” value with CHO-K1 cells (Conc 10 μg/ml) is 1 (1=non-toxic).

Regarding `CC(C)C[C@@H](CO)NS(=O)(=O)c1ccc(Br)cc1` [Example 18, 4-bromo-N-[(1S)-1-(hydroxymethyl)-3-methylbutyl]benzenesulfonamide], the fold induction at 20 µg/mL in the data set with beta amyloid production (setting [3]) worked out at 1.9. The “(%)APPI Toxicity” value in the data set with CHO-K1 cells (Conc 20 μg/ml) is 1 (1=non-toxic).

Consider `O=S(=O)(N[C@H](CO)CC1CCCCC1)c1ccccc1F` [Example 115, N-[(1S)-2-cyclohexyl-1-(hydroxymethyl)ethyl]-2-fluorobenzenesulfonamide], for which, in the data set on beta amyloid production (setting [3]), the fold induction at 20 µg/mL was determined as 1.8. Moreover, in the data set on CHO-K1 cells (Conc 20 μg/ml), the “(%)APPI Toxicity” value was 1 (1=non-toxic).

Consider `C[C@@H](NS(=O)(=O)c1ccc(Cl)cc1)[C@@H](O)c1ccccc1` [Example 93, 4-chloro-N-[(1R,2S)-2-hydroxy-1-methyl-2-phenylethyl]benzenesulfonamide], for which, in the data set on beta amyloid production (setting [3]), the fold induction at 20 µg/mL stood at 1.5. The “(%)APPI Toxicity” value with CHO-K1 cells (Conc 20 μg/ml) is reported as 1 (1=non-toxic).

On to `C=CCC(O)(CC=C)[C@@H](NS(=O)(=O)c1ccccc1F)[C@@H](C)CC` [Example 264, N-{(1S)-2-allyl-2-hydroxy-1-[(1S)-1-methylpropyl]-4-pentenyl}-2-fluorobenzenesulfonamide], for which the fold induction at 10 µg/mL in the data set on beta amyloid production (setting [1]) was 2. In addition, the “(%)APPI Toxicity” value with CHO-K1 cells (Conc 10 μg/ml) is recorded as 1 (1=non-toxic).

For the compound `CCC(O)[C@@H](NS(=O)(=O)c1ccc(Br)cc1)[C@@H](C)CC` (stereo partly drawn) [Example 153, 4-bromo-N-{(1S)-2-hydroxy-1-[(1S)-1-methylpropyl]butyl}benzenesulfonamide], the fold induction at 3 µg/mL with beta amyloid production (setting [2]) was determined as 2. Further, the fold induction at 10 µg/mL in the data set on beta amyloid production (setting [1]) amounted to 4.77. For the same compound, the “(%)APPI Toxicity” value in the data set with CHO-K1 cells (Conc 3 μg/ml) and in the data set with CHO-K1 cells (Conc 10 μg/ml) was 1 (1=non-toxic) in each case.
